According to patent US9827312B2, “Method for carrying therapeutic substances into cells” (MAGFORCE AG, priority 2005, dated 2017):

Tests used:
Settings in all cases: procedure of example 2
[1] = test system: neuroglioma cell line H4; assay: Increase in the activity of cytostatics with nanoparticles (Table 1), H4; format: cell-based
Procedure: (§1) The experiments in vitro were carried out with the cell lines BT20 (breast carcinoma) and WiDr (colon carcinoma). The tumor cells were taken from tumor tissue of a patient and cultivated as described in DE 199 12 798 C1. 2×10^6 cells, respectively, were prepared in a 75 cm^3 cell culture bottle with 25 ml of cell culture medium (RPMI+10% FBS+1.2 ml of pyruvate for WiDr cells, or respectively BME+10% FBS+pyruvate+5 ml of non-essential amino acids+5 ml glutamine for BT20 cells) for testing the efficacy of the cefamandole/nanoparticle mixture. 136 μl of magnetic fluid MFL AS M01 (iron oxide nanoparticle coated with polycondensed N-(2-aminoethyl)-3-(trimethoxysilyl)propylamine, manufacturer: MagForce Nanotechnologies GmbH, Berlin, Germany) (cFe=2 mol/l) and 390 μl of cefamandole solution (stock solution 1 mg/ml in 0.9% NaCl) were added to said cell suspension.
(§2) Corresponding to the experiment procedure according to example 2, the following […] were tested in vitro with the active ingredients listed in table 1: a) glioblastoma human cell line RUSIRS 1; b) breast carcinoma cell lines BT20; c) colon carcinoma cell line WiDR; d) bronchial carcinoma cells NSCLC, e) rectal carcinoma cells and f) prostate carcinoma cell line DU 145.
(§3) In all cases, an increased activity of the cytostatic could be observed. The increase in activity is indicated in parentheses after the respective cytostatic, wherein (+) means an increase of about 5% to 80% and (++) means an increase of 80% to 500%.

[2] = test system: glioblastoma human cell line RUSIRS1; assay: Increase in the activity of cytostatics with nanoparticles (Table 1), RUSIRS1; format: cell-based
Procedure: as §1, §2, §3

[3] = test system: breast carcinoma cell lines BT20; assay: Increase in the activity of cytostatics with nanoparticles (Table 1), BT20; format: cell-based, human
Procedure: as §1, §2, §3

[4] = test system: rectal carcinoma cells; assay: Increase in the activity of cytostatics with nanoparticles (Table 1), rectal carcinoma; format: cell-based
Procedure: as §1, §2, §3

[5] = test system: bronchial carcinoma cells NSCLC; assay: Increase in the activity of cytostatics with nanoparticles (Table 1), NSCLC; format: cell-based
Procedure: as §1, §2, §3

[6] = test system: prostate carcinoma cell line DU 145; assay: Increase in the activity of cytostatics with nanoparticles (Table 1), DU 145; format: cell-based
Procedure: as §1, §2, §3

[7] = test system: colon carcinoma cell line WiDr; assay: Increase in the activity of cytostatics with nanoparticles (Table 1), WiDr; format: cell-based, human
Procedure: as §1, §2, §3

Row | Structure (SMILES) | increase in the activity of cytostatics [1] | increase in the activity of cytostatics [2] | increase in the activity of cytostatics [3] | increase in the activity of cytostatics [4] | increase in the activity of cytostatics [5] | increase in the activity of cytostatics [6] | increase in the activity of cytostatics [7]
1 | Nc1ccn([C@@H]2O[C@H](CO)[C@@H](O)C2(F)F)c(=O)n1 [gemcitabine] | (+) ((+) means an increase of about 5% to 80%) | (+) ((+) means an increase of about 5% to 80%) | (+) ((+) means an increase of about 5% to 80%) | (+) ((+) means an increase of about 5% to 80%) | (++) ((++) means an increase of 80% to 500%) | (+) ((+) means an increase of about 5% to 80%) | (+) ((+) means an increase of about 5% to 80%)
2 | CC(C)Cc1ccc(C(C)C(=O)O)cc1 (stereo not drawn) [ibuprofen] | (+) ((+) means an increase of about 5% to 80%) | (+) ((+) means an increase of about 5% to 80%) | (+) ((+) means an increase of about 5% to 80%) | (+) ((+) means an increase of about 5% to 80%) | (+) ((+) means an increase of about 5% to 80%) | (+) ((+) means an increase of about 5% to 80%) | (++) ((++) means an increase of 80% to 500%)
3 | CC(=O)[C@]1(O)Cc2c(O)c3c(c(O)c2[C@@H](O[C@H]2C[C@H](N)[C@H](O)[C@H](C)O2)C1)C(=O)c1ccccc1C3=O [idarubicin] | (+) ((+) means an increase of about 5% to 80%) | (++) ((++) means an increase of 80% to 500%) | (+) ((+) means an increase of about 5% to 80%) | (+) ((+) means an increase of about 5% to 80%) | (++) ((++) means an increase of 80% to 500%) | (+) ((+) means an increase of about 5% to 80%) | (+) ((+) means an increase of about 5% to 80%)
4 | Cc1ccc(NC(=O)c2ccc(CN3CCN(C)CC3)cc2)cc1Nc1nccc(-c2cccnc2)n1 [imatinib] | (+) ((+) means an increase of about 5% to 80%) | (+) ((+) means an increase of about 5% to 80%) | (+) ((+) means an increase of about 5% to 80%) | (+) ((+) means an increase of about 5% to 80%) | (+) ((+) means an increase of about 5% to 80%) | (+) ((+) means an increase of about 5% to 80%) | (++) ((++) means an increase of 80% to 500%)
5 | Cc1oncc1C(=O)Nc1ccc(C(F)(F)F)cc1 [leflunomide] | (+) ((+) means an increase of about 5% to 80%) | (+) ((+) means an increase of about 5% to 80%) | (+) ((+) means an increase of about 5% to 80%) | (+) ((+) means an increase of about 5% to 80%) | (+) ((+) means an increase of about 5% to 80%) | (+) ((+) means an increase of about 5% to 80%) | (+) ((+) means an increase of about 5% to 80%)
6 | N#Cc1ccc(C(c2ccc(C#N)cc2)n2cncn2)cc1 [letrozole] | (+) ((+) means an increase of about 5% to 80%) | (+) ((+) means an increase of about 5% to 80%) | (+) ((+) means an increase of about 5% to 80%) | (+) ((+) means an increase of about 5% to 80%) | (+) ((+) means an increase of about 5% to 80%) | (+) ((+) means an increase of about 5% to 80%) | (+) ((+) means an increase of about 5% to 80%)
7 | Cc1onc(-c2ccccc2)c1C(=O)N[C@@H]1C(=O)N2[C@@H]1SC(C)(C)[C@@H]2C(=O)O [oxacillin] | (+) ((+) means an increase of about 5% to 80%) | (+) ((+) means an increase of about 5% to 80%) | (+) ((+) means an increase of about 5% to 80%) | (+) ((+) means an increase of about 5% to 80%) | (+) ((+) means an increase of about 5% to 80%) | (++) ((++) means an increase of 80% to 500%) | (++) ((++) means an increase of 80% to 500%)
8 | CC(=O)O[C@H]1C(=O)[C@@]2(C)[C@H]([C@H](OC(=O)c3ccccc3)[C@]3(O)C[C@H](OC(=O)[C@H](O)[C@@H](NC(=O)c4ccccc4)c4ccccc4)C(C)=C1C3(C)C)[C@]1(OC(C)=O)CO[C@@H]1C[C@@H]2O [paclitaxel] | (+) ((+) means an increase of about 5% to 80%) | (+) ((+) means an increase of about 5% to 80%) | (++) ((++) means an increase of 80% to 500%) | (+) ((+) means an increase of about 5% to 80%) | (+) ((+) means an increase of about 5% to 80%) | (+) ((+) means an increase of about 5% to 80%) | (+) ((+) means an increase of about 5% to 80%)
9 | CO[C@H]1C[C@@H]2CC[C@@H](C)[C@@](O)(O2)C(=O)C(=O)N2CCCC[C@H]2C(=O)O[C@H]([C@H](C)C[C@@H]2CC[C@@H](O)[C@H](OC)C2)CC(=O)[C@H](C)/C=C(\C)[C@@H](O)[C@@H](OC)C(=O)[C@H](C)C[C@H](C)/C=C/C=C/C=C/1C [rapamycin] | (+) ((+) means an increase of about 5% to 80%) | (+) ((+) means an increase of about 5% to 80%) | (++) ((++) means an increase of 80% to 500%) | (++) ((++) means an increase of 80% to 500%) | (+) ((+) means an increase of about 5% to 80%) | (+) ((+) means an increase of about 5% to 80%) | (+) ((+) means an increase of about 5% to 80%)
10 | CCC(C)(C)C(=O)O[C@H]1C[C@@H](C)C=C2C=C[C@H](C)[C@H](CC[C@@H]3C[C@@H](O)CC(=O)O3)[C@H]21 [simvastatin] | (+) ((+) means an increase of about 5% to 80%) | (+) ((+) means an increase of about 5% to 80%) | (+) ((+) means an increase of about 5% to 80%) | (+) ((+) means an increase of about 5% to 80%) | (++) ((++) means an increase of 80% to 500%) | (+) ((+) means an increase of about 5% to 80%) | (+) ((+) means an increase of about 5% to 80%)
11 | CN(C)[C@@H]1C(O)=C(C(N)=O)C(=O)[C@@]2(O)C(O)=C3C(=O)c4c(O)cccc4[C@@](C)(O)[C@H]3C[C@@H]12 [tetracycline] | (+) ((+) means an increase of about 5% to 80%) | (+) ((+) means an increase of about 5% to 80%) | (+) ((+) means an increase of about 5% to 80%) | (++) ((++) means an increase of 80% to 500%) | (+) ((+) means an increase of about 5% to 80%) | (++) ((++) means an increase of 80% to 500%) | (+) ((+) means an increase of about 5% to 80%)
12 | NC[C@H]1O[C@H](O[C@H]2[C@H](O)[C@@H](O[C@H]3O[C@H](CO)[C@@H](O)[C@H](N)[C@H]3O)[C@H](N)C[C@@H]2N)[C@H](N)C[C@@H]1O [tobramycin] | (+) ((+) means an increase of about 5% to 80%) | (+) ((+) means an increase of about 5% to 80%) | (+) ((+) means an increase of about 5% to 80%) | (+) ((+) means an increase of about 5% to 80%) | (+) ((+) means an increase of about 5% to 80%) | (+) ((+) means an increase of about 5% to 80%) | (+) ((+) means an increase of about 5% to 80%)
